The values that follow come from patent US20100273748A1, “ANTIMICROBIAL THERAPY” (priority 2006, published 2010).

Assay [1] deals with cathelicidin. Briefly: Topical treatment of healthy volunteers' skin, cathelicidin expression. The following applies: topical 1,25D3. Format: in vivo, human. The procedure:
(§1) Patients and treatments. Human skin wounds were collected following informed consent by inducing 5 mm full-thickness wounds in volunteers (n=5) under aseptic conditions with local anesthesia as described. At 24 hours after incision, 4 mm punch biopsies were taken from the site of injury and immediately fixed in formalin for immunostaining or frozen in liquid N2 for subsequent RNA isolation. Intact skin from healthy volunteers served as control (n=4). To examine the effects of topical 1,25D3, healthy skin of volunteers (n=7) was treated once topically with 1,25D3 (1.0 mM) and left under occlusion for 4 days. Vehicle treated contralateral skin served as a control. After treatment, skin biopsies were obtained from both sites, fixed in formalin 10% and embedded in paraffin for immunostaining. All treatments and sample acquisitions, including skin biopsies, were approved by the committees on investigations involving human subjects.
(§2) Immunostaining. […] Nuclei were detected with DAPI. After subsequent washings with PBS slides, were mounted in ProLong Anti-Fade reagent (Molecular Probes, Eugene, Oreg.) and evaluated with an Olympus BX41 microscope (Olympus, Melville, N.Y.). […]
(§3) NaOH, pH6.0). […] Sections were washed in PBS and detected with biotinylated secondary antibodies (Vector Laboratories, Burlingame, Calif.) and diaminobenzidine substrate (Sigma) per manufacturers' instructions.

The subject of assay [2] is TLR2. Description: Topical treatment of healthy volunteers' skin, TLR2 immunostaining. The class given is in vivo, human. The following applies: topical 1,25D3 1.0 mM once applied, 4 days, versus vehicle-treated contralateral skin. On the procedure: as §1, §2, §3
Assay [3] has as its system S. aureus DmprF. Description: Antimicrobial activity of keratinocyte lysates (bacterial growth, OD600). The class given is cell-based, Staphylococcus aureus. On the procedure:
Panel a: NHEKs were stimulated with 1,25D3 (10^−9-10^−7 M) in the presence of the HDAC inhibitor butyrate (BUT; 2 mM) for 24 hours. mRNA abundance was determined by real-time qPCR for cathelicidin and glyceraldehyde-3-phosphate dehydrogenase and normalized to vehicle-treated controls. […] Data shown are means (7SD) of the results from a single stimulation experiment performed in triplicates and are representative of at least three independent experiments (**P<0.01; ***P<0.001; two-way analysis of variance). Panel b: The HDAC inhibitor TSA (200 ng ml^−1) induces cathelicidin in the presence of 1,25D3 (10^−8M). Expression of cathelicidin is dependent on a functional VDR, as pretreatment with the VDR antagonist ZK159222 (10^−7 M) inhibits induction of cathelicidin with BUT (2 mM) in the presence of 1,25D3 (10^−8 M) after 24 hours. Expression of cathelicidin was determined by qPCR as described in Panel a. (*P<0.05; Student's t-test). Panel c: Increased transcript correlates with enhanced cathelicidin protein expression after HDAC inhibitor and 1,25D3 stimulation. NHEKs grown on chamber slides were stimulated with the vehicle, 1,25D3 (10^−8M), BUT (2 mM), or the combination for 24 hours. Cells were stained with a polyclonal anti-LL-37 antibody (followed by an FITC-coupled secondary antibody) and nuclei detected with 4,6-diamidino-2-phenylindole (Bar=30 μM). […] NHEKs were stimulated with 1,25D3 (10^−8M) in combination with the HDAC inhibitor BUT (2 mM) for 24 hours, cells harvested and cell lysates co-incubated with S. aureus DmprF, and bacterial growth monitored over time to determine antimicrobial activity. Media not containing cell lysates or containing cell lysates from unstimulated cells were used as controls.

Consider `C=C1/C(=C\C=C2/CCC[C@]3(C)[C@@H]([C@H](C)CCCC(C)(C)O)CC[C@@H]23)C[C@@H](O)C[C@@H]1O` [1,25D3, 1,25(OH)2 vitamin D3], for which the “cathelicidin expression in skin” value in assay [1] is reported as “increased expression”. Moreover, in assay [2], the “TLR2 staining intensity in skin sections” value was “Staining intensity increased”. Besides, in assay [3] (cells treated with 1,25D3 (10^−8M) and butyrate (2 mM), 24 hours), the “suppression of S. aureus growth by protein extracts of treated cells” value is on record as “maximal ability to suppress the growth”. In addition, the “antimicrobial activity of the agents themselves” value in assay [3] (without cell lysate) is “did not show antimicrobial activity”.
